Each block holds one molecule with its values, some of them ahead of it.
Legend:
chronic psoriasis = test: Multi-center, double blind study of ointments in mild to moderate chronic psoriasis; type: in vivo, patients; details: for percentage of patients healed or showing marked improvement (treatment effective): ointment twice a day for one month, 1% resveratrol, calcipotriol 50 mg/g, or both, 12 patients per group, control 10%
Description: A prospectic, multi-center, double bind study was effected on patients of both sexes, of age above 18 years, with a clinical diagnosis of mild to moderate chronic psoriasis, with affected areas of at least 100 cm^2, but not above 40% of the total body area. Patients with pustular psoriasis or with psoriasis guttata, those who had received either topical treatment for two weeks before the test or systemic treatment in the 8 weeks before the test, as well as pregnant and nursing women or patients receiving more than 400 IU of vitamin D daily or any other medicament potentially affecting the progress of the disease, were excluded.
Out of 48 patients, 12 were included in the resveratrol-treated group (1% resveratrol ointment), 12 in the control group (ointment with no resveratrol), 12 in a group treated with a Vitamin D derivative (calcipotriol 50 mg/g) and 12 in a group treated with the combination resveratrol/Vitamin D derivative (1% resveratrol/50 mg/g calcipotriol). […] Patients were treated twice a day for one month with the different ointments.
At the end of the treatment, the clinical response was evaluated as “healed”, “marked improvement”, “slight improvement”, “no changes”, “worsening”. Quality life evaluations were carried out before and after the treatment, by using the “psoriasis Disability Index” (PDI) and the “Sickness Impact Profile” (SIP). The PDI questionnaire included 15 questions as follows: daily activities (5 questions), work or school, if applicable, (3 questions), personal relationships, (2 questions), spare time (4 questions), treatment, (1 question). […] The purpose of said questions was to evaluate symptoms and feelings of the patients concerning their psoriasis during the first 4 weeks of treatment.

acne vulgaris = test: Randomized, double blind study of topical resveratrol (1% cream) in acne vulgaris; type: in vivo, patients; details: 1% cream daily for 10 weeks
Protocol: A randomized, double blind study was carried out in order to evaluate the effectiveness of topical administration of resveratrol in the treatment of acne vulgaris. Patients (n=30) of 15 to 19 years were all suffering from II or III degree acne (according to Pillsbury's classification), with multiple inflammatory lesions (20 to 62) and a number of comedos (28 to 120) on face and forehead. Only subjects who had received no systemic treatment with antibiotics for at least 4 weeks and had used no topical medicaments for 2 weeks before treatment were selected. During treatment with resveratrol, no further topical treatment was allowed. The effectiveness of the therapy was evaluated by comparing the conditions of the lesions before and after the treatment, according to an arbitrary score of 0 to 5 (0=worsening; 1=no changes; 2=slight improvement; 3=modest improvement; 4=good improvement; 5=excellent improvement).
Treatment consisted of daily topical administrations of resveratrol (1% cream) or of the carrier only, for 10 weeks in 30 patients suffering from acne vulgaris. The evaluated parameters were: number of acne lesions and comedos, erythema, seborrhoic skin and skin scaling.

[1] = system: severe disabling exfoliative eczema; test: Clinical study of 1% resveratrol ointment in exfoliative eczema (six-area/six-sign score); type: in vivo, patients
Protocol: Experiments were carried out on patients (n=20) of both sexes, of age above 18 years, suffering from severe disabling exfoliative eczema unresponsive to the current topical treatments.
All patients were subjected to complete blood count and measurements of renal and hepatic functions prior to treatment. Patients who had been systemically treated two months previously with corticoids, antibiotics, psoralenes and other immunosuppressants or with UV were excluded. Patients were supposed not to use any corticoid topically.
Out of 20 patients, 10 were included in the resveratrol-treated group (1% resveratrol ointment) and 10 in the control group (ointment with no resveratrol). […] Patients were divided in two groups and treated twice a day for six months either with the resveratrol-containing ointment or with the placebo ointment (control group).
The progress of the disease was monitored by using the “six-area/six-sign score” method. The severity of the six signs used for monitoring the disease (erythema, pustules, excoriations, dehydration, scaling of the skin and lichenification), was evaluated on a 0-3 score (none, mean, moderate and severe), in each of the six body areas tested (head, neck, hands, elbows, feet, legs and trunk). The severity of itching and of sleep disorders was evaluated on a 0-3 score (none, mean, moderate and severe).

[2] = system: neutrophils, circulating cells, cells at the lesion site; test: General observations during and after topical treatment with resveratrol; type: in vivo
[3] = end of six months treatment, 10 treated patients

SMILES: C=C1/C(=C\C=C2/CCC[C@]3(C)[C@@H]([C@H](C)/C=C/[C@@H](O)C4CC4)CC[C@@H]23)C[C@@H](O)C[C@@H]1O [Vitamin D derivatives, calcipotriol, reference compound]
percentage of patients healed or showing marked improvement (treatment effective) (chronic psoriasis): 47%

systemic or topical effects during and after the treatment ([2]; topical use): neither systemic nor topical effects
SMILES: Oc1ccc(/C=C/c2cc(O)cc(O)c2)cc1 [resveratrol, 3,4′,5-trihydroxy-trans-stilbene]
cases in which effectiveness was due to the reduction of follicle hyperkeratosis (acne vulgaris): 95% | side effects (acne vulgaris): neither systemic nor topical side effects | treated subjects with significant reduction of erythema, number of acne lesions, comedos and scaling (acne vulgaris; control subjects 2%): 96% | reduction in the total PDI score (chronic psoriasis; after treatment, 95% CI 4.4, 8.6, P=0.001, control group 1.7): 6.5 | percentage of patients healed or showing marked improvement (treatment effective) (chronic psoriasis): 80% | mean of the values concerning the different clinical symptoms (six-area/six-sign score) ([1]; 1% resveratrol ointment twice a day, after the first two weeks of treatment, baseline 57.0 (SEM 1.6, n=10)): 21.5 | body area affected by eczema ([1]; during treatment, baseline 69% on the average): 27% | number of treated patients showing improvements only concerning skin scaling [1, 3]: two | number of treated patients with significant improvements of all the considered parameters [1, 3]: 8 patients | mean score for itching (0-3) ([1]; end of the treatment, baseline 2.3): 0.6 | mean score for sleep disorders (0-3) ([1]; end of the treatment, baseline 2.9): 1.0 | neutrophils activity, circulating cells, cells at the lesion site ([2]; after topical treatment): no changes of neutrophils activity
